Source: ChEMBL document CHEMBL1201862, “PubChem BioAssay data set” (2004)
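Dose response: 5 concentrations. Exposure: 48 h. Format: 96-well plates. Endpoint: linear interpolation; highest concentration if not reached. At the GI50, growth is halved.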 Active and inactive are the calls of the source. Rule as the data show it: active = GI50 up to about 1.1 µM and inactive = higher.

Legend:
Experiment in all cases: growth of human tumour cells (NCI), 48 h
[1] = test system: SNB-75
[2] = test system: MCF7
[3] = test system: K562
[4] = test system: LOX IMVI
[5] = test system: M14
[6] = test system: SK-MEL-2
[7] = test system: Hs-578T
[8] = test system: CAKI-1
[9] = test system: U-251
[10] = test system: Malme-3M
[11] = test system: EKVX
[12] = test system: IGROV-1
[13] = test system: SF-539
[14] = test system: BT-549
[15] = test system: SN12C
[16] = test system: OVCAR-3
[17] = test system: MDA-N
[18] = test system: SW-620
[19] = test system: OVCAR-4
[20] = test system: RPMI-8226

Measured: GI50

O=C1c2ccccc2/C=C\C(c2ccccc2)=N/N1c1ccccc1Cl
inactive: [1] 25.9 µM | [2] 21.5 µM | [3] 5.26 µM | [4] 25.1 µM | [5] 21.9 µM | [6] 60 µM | [7] 34.5 µM | [8] 16.9 µM | [9] 21.7 µM | [10] 23.3 µM | [11] 22.5 µM | [12] 29.4 µM | [13] 35.7 µM | [14] 10.9 µM | [15] 23 µM | [16] 27.5 µM | [17] 3.44 µM | [18] 20.1 µM | [19] 22.4 µM | [20] 23.7 µM

CC(C)(C)c1cc(C2COC(c3cc(C(C)(C)C)c(O)c(C(C)(C)C)c3)CO2)cc(C(C)(C)C)c1O (stereo not given)
inactive: [1] > 100 µM | [2] > 100 µM | [3] > 100 µM | [4] > 100 µM | [5] > 100 µM | [6] > 100 µM | [7] > 100 µM | [8] > 100 µM | [9] 90.4 µM | [10] > 100 µM | [11] > 100 µM | [12] > 100 µM | [13] > 100 µM | [14] > 100 µM | [15] > 100 µM | [16] > 100 µM | [17] > 100 µM | [18] > 100 µM | [19] > 100 µM | [20] > 100 µM

COc1ccc(C2SC(=N)Nc3c2c(C)nn3C(=O)c2ccc(Cl)cc2)cc1 (stereo not given)
inactive: [1] > 10 µM | [2] > 10 µM | [3] > 10 µM | [4] > 10 µM | [5] > 10 µM | [6] > 10 µM | [7] > 10 µM | [8] > 10 µM | [9] > 10 µM | [10] > 10 µM | [11] > 10 µM | [12] > 10 µM | [13] > 10 µM | [14] > 10 µM | [15] > 10 µM | [16] > 10 µM | [17] > 10 µM | [18] > 10 µM | [19] > 10 µM | [20] > 10 µM

CC1=NN(C(=O)c2ccncc2)C(=O)C1/N=N/c1ccc2ccccc2c1 (stereo not given)
inactive: [1] > 100 µM | [2] 5.32 µM | [3] 5.46 µM | [4] 30.1 µM | [5] 12.2 µM | [6] 14.7 µM | [7] 5.2 µM | [8] > 100 µM | [9] > 91 µM | [10] > 72.6 µM | [11] 2.71 µM | [12] 22.9 µM | [13] > 96.8 µM | [14] > 100 µM | [15] > 100 µM | [16] 28.1 µM | [17] 2.94 µM | [18] 38.7 µM | [19] > 100 µM | [20] > 50.6 µM

O=C(O)c1ccc(Nc2ccnc3cc(Cl)ccc23)cc1O
inactive: [1] > 100 µM | [2] > 100 µM | [3] > 100 µM | [4] > 100 µM | [5] > 100 µM | [6] > 100 µM | [7] > 100 µM | [8] > 100 µM | [9] 95.1 µM | [10] > 100 µM | [11] > 100 µM | [12] > 100 µM | [13] 11.1 µM | [14] > 100 µM | [15] > 100 µM | [16] > 100 µM | [17] > 100 µM | [18] > 100 µM | [19] > 100 µM | [20] > 100 µM

Cc1nnc2ccccc2c1O
inactive: [1] > 100 µM | [2] > 100 µM | [3] 2.52 µM | [4] > 100 µM | [5] > 100 µM | [6] > 100 µM | [7] > 100 µM | [8] > 100 µM | [9] > 100 µM | [10] > 100 µM | [11] > 100 µM | [12] > 100 µM | [13] > 100 µM | [14] > 100 µM | [15] > 100 µM | [16] > 100 µM | [17] > 100 µM | [18] > 100 µM | [19] > 100 µM | [20] > 100 µM

O=[N+]([O-])C(=C(N1CCOCC1)N1CCOCC1)/C(Cl)=C(\Cl)[N+](=O)[O-]
inactive: [1] 19.4 µM | [2] 2.67 µM | [3] 3.69 µM | [4] 2.15 µM | [5] 6.35 µM | [6] 15.8 µM | [7] 1.18 µM | [8] 1.64 µM | [9] 18.9 µM | [10] 1.68 µM | [11] 8.73 µM | [12] 1.41 µM | [13] 11.6 µM | [14] 4.59 µM | [15] 2.01 µM | [16] 4.54 µM | [17] 9.75 µM | [18] 2.23 µM | [19] 16 µM | [20] 2.31 µM

CCOC(=O)CCC(C(=O)OCC)n1nnc2cc(Nc3c(C)[n+]([O-])c4cc(Cl)ccc4[n+]3[O-])ccc21 (stereo not given)
inactive: [1] 89.3 µM | [2] 28.2 µM | [3] 59.2 µM | [4] 69.2 µM | [5] 44.6 µM | [6] 77.8 µM | [7] > 100 µM | [8] 93.3 µM | [9] 80.4 µM | [10] > 100 µM | [11] 14.2 µM | [12] > 100 µM | [13] 95.5 µM | [14] > 100 µM | [15] 96.6 µM | [16] 40.2 µM | [17] > 100 µM | [18] 88.7 µM | [19] 77.4 µM | [20] 37.2 µM

Cc1cc(S(=O)(=O)Nc2nnc3c4ccccc4cnn23)c(S)cc1Cl
inactive: [1] 69.8 µM | [2] > 67.3 µM | [3] > 100 µM | [4] > 100 µM | [5] > 100 µM | [6] 31.6 µM | [7] 40.1 µM | [8] > 100 µM | [9] 29.9 µM | [10] > 100 µM | [11] 44 µM | [12] 39.2 µM | [13] > 56.9 µM | [14] > 54.5 µM | [15] > 100 µM | [16] > 86.3 µM | [17] > 100 µM | [18] > 100 µM | [19] > 100 µM | [20] > 100 µM

Cn1c(SCc2ccc([N+](=O)[O-])cc2)nnc1C12CC3CC(CC(C3)C1)C2
inactive: [1] 4.66 µM | [2] > 10 µM | [3] > 10 µM | [4] > 10 µM | [5] > 10 µM | [6] > 10 µM | [7] > 10 µM | [8] > 10 µM | [9] > 10 µM | [10] > 10 µM | [11] > 10 µM | [12] > 10 µM | [13] > 10 µM | [14] > 10 µM | [15] > 10 µM | [16] > 10 µM | [17] > 10 µM | [18] > 10 µM | [19] > 10 µM | [20] > 10 µM
